Holding throughout (format): in vivo, BALB/c mice
Data set [1] deals with ADR-induced nephropathy. Nature of the data set: Serum blood urea nitrogen (BUN) in the Adriamycin nephropathy (FSGS) model. The settings on record: ADR mice, 40 mg/kg/day s.c., end of study. The method, then:
(§1) Experimental Protocol: 6 animals (BALB/c mice) per group of 6-7 weeks of age were used. Nephropathy was induced in all animals, except group 1 (normal control), with Adriamycin (ADR, 11 mg/kg, i.v., single dose) at dose volume of 6 ml/kg. Normal saline (0.9%) was used as vehicle for the reference and test compounds. Treatment was started 24 hours after Adriamycin injection. Groups of animals (n=6) were treated subcutaneously with vehicle, HBCD, Polymer A and Polymer B at the doses and regimens shown in FIG. 10, for 10 weeks. At the end of the study, animals were sacrificed by CO2 exposure, blood samples and kidneys were collected for the estimation of various biomarkers in serum.
Serum Analysis: Serum samples were analysed in an Automated Clinical Chemistry Analyzer EM360, Transasia Bio-medicals Ltd, for albumin and creatinine. • (a) Blood Urea Nitrogen (BUN) assay to assess the level of kidney function was analysed by the GLDH Urease method using an Erba standard BUN kit. (FIG. 13). Administration of ADR to induce nephropathy increased blood urea nitrogen levels as one would expect from an impaired kidney. […] The combination of data from these studies serves to illustrate the potential of the polymers of the present disclosure as treatment options for kidney disease compared to known cholesterol clearance compounds.

The subject of data set [2] is ADR-induced nephropathy. Nature of the data set: Kidney histopathology (H/E and PAS staining, mesangial expansion) in the Adriamycin nephropathy model. The settings on record: ADR mice, 40 mg/kg/day s.c. (group 3), 10 weeks. The method, then:
as §1
Histopathology: At the end of the study, kidney samples were collected from each animal, fixed in 10% NBF (Neutral Buffered […]) and subjected to histopathology. Periodic acid-Schiff (PAS) or Hematoxylin and Eosin (H/E) staining of 4 micron-thick tissue sections was performed according to the standard protocols. Mesangial expansion area was determined based on the area of PAS staining.

Data set [3] can be described thus: Body weight in the Adriamycin nephropathy (FSGS) dose response/frequency study. The settings on record: ADR mice, 40 mg/kg/day s.c., 10 weeks, compared to normal mice. The method, then:
as §1
Body weights: Body weights were measured at the beginning of study and weekly throughout for ten weeks (FIG. 11) to provide a general assessment of rodent health after therapy.

On to hydroxypropyl β-cyclodextrin [HBCD], for which the “serum blood urea nitrogen (BUN) level” value in the data set on ADR-induced nephropathy [1] is “BUN levels return to that found for the control group”. In the data set with ADR-induced nephropathy [2], the “kidney histopathology (glomeruli appearance)” value is reported as “glomeruli that are normal in appearance”. The mean body weight result in data set [3] is recorded as “largest drop in mean body weight without any substantial rebound”.
